One may read the IC50 as the midpoint of a concentration-inhibition curve. In general, inhibition refers to the change of the read-out against control, counted positive when it falls. One may read the AUC(0-t) as the area under the concentration-time curve up to a stated or last time point. The Cmax is the maximum level reached in the sampled fluid or tissue. As a reminder, the half-life is the time in which the quantity being followed falls by half. Higher therefore signals slow decline.

Like-named read-outs stand apart in the source and are kept apart here.

These results are taken from patent US20260217683A1, “PYRIDAZINONE HETEROCYCLIC COMPOUND MYOSIN II INHIBITOR AND USE THEREOF” (Xizang Haisco Pharmaceutical Co., Ltd., priority 2023, published 2026).

Data set [1] relates to rabbit skeletal muscle myosin. In words: Inhibition of hydrolysis of ATP by rabbit skeletal muscle myosin. Type of data set: biochemical. Put shortly:
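Actin-activated ATPase: F-actin plus rabbit skeletal myosin II with compound in Tris-HCl pH 7.5/KCl/EGTA/MgCl2, started with ATP (3 mM working stock) and run 60 min at 37 °C. Released Pi measured by CytoPhos absorbance at 650 nm against a phosphate standard curve; IC50 fitted from inhibition relative to uninhibited myosin.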

In a further data set the target is T1, cardiac myosin SII (Bos taurus, UniProt Q9BE39).
T1 construct: purchased Cytoskeleton #MYO3-A
In words: Inhibition of hydrolysis of ATP by cardiac myosin SII. The data set is classed as biochemical. Conditions: 100 μM compound. A digest of the protocol:
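Bovine cardiac myosin with preformed F-actin in 15 mM Tris-HCl pH 7.5, 10 mM KCl, 2 mM MgCl2, 0.1 mM EGTA; compounds at 100 μM final, ATP from 3 mM working solution, 2 h at 37 °C. Released Pi measured colorimetrically at 650 nm against a Pi standard curve; % inhibition vs. DMSO control.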

The target of another data set is T2, smooth muscle myosin S1 (Gallus gallus, UniProt P10587).
T2 construct: purchased Cytoskeleton #CS-MYS05
Description: Inhibition of hydrolysis of ATP by smooth muscle myosin S1 fragments. Conditions: 100 μM compound. The data set is classed as biochemical. A digest of the protocol: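 Smooth muscle myosin S1 fragment (0.7 mg/mL in PM12 buffer with 1 mM DTT) was mixed with compound and F-actin polymer prepared from cardiac actin, then 5 mM ATP working solution started the reaction at 37° C. for 20 min. Released Pi was measured with CytoPhos reagent at 650 nm against a standard curve, and inhibition was calculated relative to positive control wells.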

A short description of data set [2]: Pharmacokinetic experiment in mice. Type of data set: in vivo. Conditions: male, C57, po; mouse plasma, i.g. (10 mg/kg). On the procedure: (§1) 1. Experimental animals: Male C57 mice, 22-25 g, 6 mice/compound. Purchased from Chengdu Ddossy Experimental Animals Co., Ltd.
2. Experimental design: On the day of the experiment, 12 C57 mice were randomly grouped according to their body weight. The animals were fasted with water available for 12 to 14 h one day before the administration and were fed 4 h after the administration.
Before and after the administration, 0.06 mL of blood was taken from the orbit of the animals under isoflurane anesthesia and placed in an EDTAK2 centrifuge tube. The blood was centrifuged at 5000 rpm and 4° C. for 10 min to collect the plasma. The blood collection time points for the intravenous group and intragastric administration group were: 0 m, 5 m, 15 min, 30 min, 1 h, 2 h, 4 h, 7 h and 24 h. Before analysis and detection, all samples were stored at −80° C., and a quantitative analysis of samples was performed using LC-MS/MS.

Data set [3] concerns the target T3, hERG potassium ion channel (Homo sapiens, UniProt Q12809).
T3 construct: expressed in transfected cells
Description: Effect on hERG potassium ion channel (manual patch-clamp, CHO cells). Type of data set: cell-based. To be noted: CHO cells stably expressing hERG, whole cell patch-clamp; read-out: IC50 of the inhibitory effect on hERG potassium channel current. From the text: 1. Experimental platform: electrophysiological manual patch-clamp system
2. Cell line: Chinese hamster ovary (CH—O) cell lines stably expressing hERG potassium ion channel
3. Experimental method: in CHO (Chinese Hamster Ovary) cells stably expressing hERG potassium channel, whole cell patch-clamp technique was used to record hERG potassium channel current at room temperature. The glass microelectrode was made of a glass electrode blank (BF150-86-10, Sutter) by a puller. The tip resistance after filling the liquid in the electrode was about 2-5 MQ. The glass microelectrode can be connected to the patch-clamp amplifier by inserting the glass microelectrode into an amplifier probe. The clamping voltage and data recording were controlled and recorded by the pClamp 10 software through a computer. The sampling frequency was 10 kHz, and the filtering frequency was 2 kHz. After the whole cell records were obtained, the cells were clamped at −80 mV, and the step voltage that induced the hERG potassium current (IhERG) was depolarized from −80 mV to +20 mV for 2 s, then repolarized to −50 mV, and returned to −80 mV after 1 s. This voltage stimulation was given every 10 s, and the administration process was started after the hERG potassium current was confirmed to be stable (at least 1 minute). The compound was administered for at least 1 minute at each test concentration, and at least 2 cells (n≥2) were tested at each concentration.
4. Data processing: Data analysis processing was carried out by using pClamp 10, GraphPad Prism 5 and Excel software. The inhibition degree of hERG potassium current (peak value of hERG tail current induced at −50 mV) at different compound concentrations was calculated by the following formula:
[formula] • where Inhibition % represents the percentage of inhibition of hERG potassium current by the compound, and I and Io represent the amplitude of hERG potassium current after and before the administration, respectively.
Compound IC50 was calculated using GraphPad Prism 5 software by fitting according to the following equation: […]
Among the equation, X represents the Log value of the tested concentration of the test sample, Y represents the inhibition percentage at the corresponding concentration, and Bottom and Top represent the minimum and maximum inhibition percentage, respectively.
In general terms: hERG is a cardiac potassium channel; its block is linked to QT prolongation.

Another data set has as its target T4, CYP1A2 (Homo sapiens, UniProt P05177).
T4 construct: incubated with human liver microsomes and test compounds of different concentrations; from tissue; host or cells: human liver microsomes
T4 sequence (P05177 1-516): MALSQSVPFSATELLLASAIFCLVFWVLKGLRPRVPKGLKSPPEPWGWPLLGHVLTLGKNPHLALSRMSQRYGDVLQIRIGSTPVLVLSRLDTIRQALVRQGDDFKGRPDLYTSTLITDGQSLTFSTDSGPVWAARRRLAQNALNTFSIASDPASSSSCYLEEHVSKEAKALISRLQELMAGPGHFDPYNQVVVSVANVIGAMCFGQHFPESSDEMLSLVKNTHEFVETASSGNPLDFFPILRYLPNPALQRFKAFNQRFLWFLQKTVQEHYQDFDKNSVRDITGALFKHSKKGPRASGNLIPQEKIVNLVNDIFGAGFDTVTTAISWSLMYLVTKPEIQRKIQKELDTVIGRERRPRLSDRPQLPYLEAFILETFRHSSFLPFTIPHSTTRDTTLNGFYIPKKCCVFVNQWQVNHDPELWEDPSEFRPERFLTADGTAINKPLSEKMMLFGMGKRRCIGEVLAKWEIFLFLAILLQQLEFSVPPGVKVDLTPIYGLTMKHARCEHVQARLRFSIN
Description: CYP450 enzyme inhibition, human liver microsomes, CYP1A2. Type of data set: in vitro ADME. On the procedure: (§2) The purpose of this study was to evaluate the effect of the test compound on the activity of five isoenzymes (CYP1A2, CYP2C9, CYP2C19, CYP2D6 and CYP3A4) of human liver microsomal cytochrome P450 (CYP) by using an in vitro testing system. The specific probe substrates of CYP450 isoenzymes were incubated with human liver microsomes and test compounds of different concentrations, and reduced nicotinamide adenine dinucleotide phosphate (NADPH) was added to initiate the reaction. After the completion of the reaction, the sample was treated and liquid chromatography-tandem mass spectrometry (LC-MS/MS) was used to quantitatively detect metabolites produced by specific substrates, changes in CYP enzyme activity were determined, and IC50 value was calculated to evaluate the inhibitory potential of the test compound on each CYP enzyme subtype.
A general note: Liver microsomes are a subcellular fraction often used to study metabolism.

The target of another data set is T5, CYP2C9 (Homo sapiens, UniProt P11712).
T5 construct: incubated with human liver microsomes and test compounds of different concentrations; from tissue; host or cells: human liver microsomes
Description: CYP450 enzyme inhibition, human liver microsomes, CYP2C9. Type of data set: in vitro ADME. On the procedure: as §2

A further data set concerns the target T6, CYP2C19 (Homo sapiens, UniProt P33261).
T6 construct: incubated with human liver microsomes and test compounds of different concentrations; from tissue; host or cells: human liver microsomes
In words: CYP450 enzyme inhibition, human liver microsomes, CYP2C19. Type of data set: in vitro ADME. On the procedure: as §2

Another data set has as its target T7, CYP2D6 (Homo sapiens, UniProt P10635).
T7 construct: incubated with human liver microsomes and test compounds of different concentrations; from tissue; host or cells: human liver microsomes
Description: CYP450 enzyme inhibition, human liver microsomes, CYP2D6. The data set is classed as in vitro ADME. On the procedure:
as §2

For a further data set, the target named is T8, CYP3A4 (Homo sapiens, UniProt P08684).
T8 construct: incubated with human liver microsomes and test compounds of different concentrations; from tissue; host or cells: human liver microsomes
Description: CYP450 enzyme inhibition, human liver microsomes, CYP3A4. Type of data set: in vitro ADME. On the procedure:
as §2

Data set [4] can be described thus: Pharmacokinetic experiment in mouse muscle tissue (tibialis anterior / plasma). Type of data set: in vivo, C57 mice. To be noted: male, C57, tibialis anterior muscle / plasma, oral, intragastric 10 mg/kg, read-out: Ratio = Tibialis anterior Conc./Plasma Conc. On the procedure: as §1
2. Experimental design: On the day of the experiment, C57 mice were randomly grouped according to their body weight. The animals were fasted with water available for 12 to 14 h one day before the administration and were fed 4 h after the administration. Administration was performed as per Table 10.1.

Setting [5] is: inhibition of hydrolysis of ATP, class symbols, read-out: Rabbit skeletal muscle myosin (IC50).
Where [6] appears, read: read-out: IC50 for inhibition of hydrolysis of ATP by rabbit skeletal muscle myosin.

T3 sequence (Q12809 whole entry): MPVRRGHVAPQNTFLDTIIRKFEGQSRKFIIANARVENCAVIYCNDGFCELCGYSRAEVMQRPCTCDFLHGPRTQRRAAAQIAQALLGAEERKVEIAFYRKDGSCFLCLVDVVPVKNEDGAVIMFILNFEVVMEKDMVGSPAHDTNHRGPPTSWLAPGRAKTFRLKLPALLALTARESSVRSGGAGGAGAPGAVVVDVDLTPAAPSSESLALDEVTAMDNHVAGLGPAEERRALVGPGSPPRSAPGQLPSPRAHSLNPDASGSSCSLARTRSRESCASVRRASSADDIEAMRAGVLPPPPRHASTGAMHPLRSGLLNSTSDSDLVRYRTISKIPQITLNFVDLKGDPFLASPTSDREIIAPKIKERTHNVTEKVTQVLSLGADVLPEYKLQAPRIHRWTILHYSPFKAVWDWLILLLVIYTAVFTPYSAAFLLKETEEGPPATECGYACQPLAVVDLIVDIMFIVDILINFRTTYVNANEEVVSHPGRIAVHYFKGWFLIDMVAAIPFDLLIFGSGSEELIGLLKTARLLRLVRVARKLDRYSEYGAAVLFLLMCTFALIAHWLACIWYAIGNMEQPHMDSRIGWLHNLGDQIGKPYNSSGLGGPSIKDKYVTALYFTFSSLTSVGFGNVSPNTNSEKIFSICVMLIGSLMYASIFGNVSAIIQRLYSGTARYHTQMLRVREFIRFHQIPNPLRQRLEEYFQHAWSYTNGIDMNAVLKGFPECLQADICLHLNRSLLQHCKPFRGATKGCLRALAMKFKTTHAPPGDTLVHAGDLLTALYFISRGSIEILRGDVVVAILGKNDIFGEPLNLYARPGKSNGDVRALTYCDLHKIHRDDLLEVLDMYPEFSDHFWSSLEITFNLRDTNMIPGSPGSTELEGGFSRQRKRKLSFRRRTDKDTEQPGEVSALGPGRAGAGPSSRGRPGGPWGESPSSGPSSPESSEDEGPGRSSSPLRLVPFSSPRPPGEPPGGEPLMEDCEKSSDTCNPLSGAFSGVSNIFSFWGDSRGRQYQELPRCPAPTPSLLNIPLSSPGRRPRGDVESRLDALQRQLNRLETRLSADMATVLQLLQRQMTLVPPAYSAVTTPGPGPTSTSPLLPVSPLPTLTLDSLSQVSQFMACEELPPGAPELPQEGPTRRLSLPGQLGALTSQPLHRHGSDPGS
T1 sequence (Q9BE39 whole entry): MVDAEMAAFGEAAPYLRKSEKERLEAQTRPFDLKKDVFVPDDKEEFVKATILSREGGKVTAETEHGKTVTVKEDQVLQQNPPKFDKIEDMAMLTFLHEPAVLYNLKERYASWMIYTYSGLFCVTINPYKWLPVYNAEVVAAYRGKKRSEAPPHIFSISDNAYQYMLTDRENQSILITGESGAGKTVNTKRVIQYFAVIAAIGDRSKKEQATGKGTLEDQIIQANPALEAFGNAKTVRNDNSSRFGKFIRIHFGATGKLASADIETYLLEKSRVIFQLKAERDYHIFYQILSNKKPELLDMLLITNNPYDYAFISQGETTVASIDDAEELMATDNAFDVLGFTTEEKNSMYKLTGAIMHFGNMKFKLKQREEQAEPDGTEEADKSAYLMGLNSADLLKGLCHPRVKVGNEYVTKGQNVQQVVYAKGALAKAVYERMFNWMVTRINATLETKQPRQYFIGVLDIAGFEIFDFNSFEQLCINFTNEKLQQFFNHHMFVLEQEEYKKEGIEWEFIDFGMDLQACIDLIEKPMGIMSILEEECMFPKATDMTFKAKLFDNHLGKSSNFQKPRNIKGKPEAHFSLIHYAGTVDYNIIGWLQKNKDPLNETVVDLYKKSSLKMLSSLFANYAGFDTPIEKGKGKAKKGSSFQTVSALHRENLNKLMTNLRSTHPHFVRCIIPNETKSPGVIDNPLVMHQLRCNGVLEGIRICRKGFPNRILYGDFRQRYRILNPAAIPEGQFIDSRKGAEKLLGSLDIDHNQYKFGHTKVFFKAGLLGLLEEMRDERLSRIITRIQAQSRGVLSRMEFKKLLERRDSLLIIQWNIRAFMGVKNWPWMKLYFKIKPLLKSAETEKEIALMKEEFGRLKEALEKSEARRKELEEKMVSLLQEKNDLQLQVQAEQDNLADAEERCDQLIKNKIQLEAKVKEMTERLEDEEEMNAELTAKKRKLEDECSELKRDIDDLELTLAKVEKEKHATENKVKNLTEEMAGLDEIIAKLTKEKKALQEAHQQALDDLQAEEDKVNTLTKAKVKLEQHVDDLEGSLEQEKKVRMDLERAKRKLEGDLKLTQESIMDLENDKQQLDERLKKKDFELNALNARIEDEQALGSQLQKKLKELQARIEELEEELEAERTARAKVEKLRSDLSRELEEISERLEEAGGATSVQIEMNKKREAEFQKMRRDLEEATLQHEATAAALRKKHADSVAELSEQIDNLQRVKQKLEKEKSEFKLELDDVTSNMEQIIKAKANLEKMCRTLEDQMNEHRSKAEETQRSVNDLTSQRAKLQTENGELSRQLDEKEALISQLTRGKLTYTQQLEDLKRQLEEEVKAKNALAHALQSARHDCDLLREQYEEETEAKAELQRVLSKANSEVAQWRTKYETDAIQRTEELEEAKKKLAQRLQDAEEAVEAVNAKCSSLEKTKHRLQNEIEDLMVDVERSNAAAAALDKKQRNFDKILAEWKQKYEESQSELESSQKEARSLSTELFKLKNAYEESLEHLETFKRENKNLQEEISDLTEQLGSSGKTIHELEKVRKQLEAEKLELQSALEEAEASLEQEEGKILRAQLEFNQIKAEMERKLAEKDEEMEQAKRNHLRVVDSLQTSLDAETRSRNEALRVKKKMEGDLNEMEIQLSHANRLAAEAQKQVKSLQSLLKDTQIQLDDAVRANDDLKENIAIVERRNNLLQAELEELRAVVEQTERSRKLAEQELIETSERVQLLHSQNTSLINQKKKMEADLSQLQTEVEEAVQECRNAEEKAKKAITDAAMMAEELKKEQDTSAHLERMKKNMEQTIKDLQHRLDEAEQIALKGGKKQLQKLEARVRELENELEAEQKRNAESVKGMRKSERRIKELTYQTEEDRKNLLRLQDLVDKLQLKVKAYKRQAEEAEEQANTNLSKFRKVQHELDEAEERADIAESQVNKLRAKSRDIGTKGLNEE
T1 sequence (P85100 whole entry partner): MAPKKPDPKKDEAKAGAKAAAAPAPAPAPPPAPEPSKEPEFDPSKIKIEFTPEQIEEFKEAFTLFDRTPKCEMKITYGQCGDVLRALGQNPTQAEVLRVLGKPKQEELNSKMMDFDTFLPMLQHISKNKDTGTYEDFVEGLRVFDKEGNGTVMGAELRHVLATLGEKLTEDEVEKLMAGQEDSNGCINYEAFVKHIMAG
T1 sequence (Q3SZE5 whole entry partner): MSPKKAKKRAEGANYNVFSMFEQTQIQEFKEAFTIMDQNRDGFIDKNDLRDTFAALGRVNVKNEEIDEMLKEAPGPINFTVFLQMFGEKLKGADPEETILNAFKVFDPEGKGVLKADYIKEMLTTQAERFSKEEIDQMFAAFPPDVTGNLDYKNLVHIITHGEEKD
T2 sequence (P10587 84-789 limits assumed): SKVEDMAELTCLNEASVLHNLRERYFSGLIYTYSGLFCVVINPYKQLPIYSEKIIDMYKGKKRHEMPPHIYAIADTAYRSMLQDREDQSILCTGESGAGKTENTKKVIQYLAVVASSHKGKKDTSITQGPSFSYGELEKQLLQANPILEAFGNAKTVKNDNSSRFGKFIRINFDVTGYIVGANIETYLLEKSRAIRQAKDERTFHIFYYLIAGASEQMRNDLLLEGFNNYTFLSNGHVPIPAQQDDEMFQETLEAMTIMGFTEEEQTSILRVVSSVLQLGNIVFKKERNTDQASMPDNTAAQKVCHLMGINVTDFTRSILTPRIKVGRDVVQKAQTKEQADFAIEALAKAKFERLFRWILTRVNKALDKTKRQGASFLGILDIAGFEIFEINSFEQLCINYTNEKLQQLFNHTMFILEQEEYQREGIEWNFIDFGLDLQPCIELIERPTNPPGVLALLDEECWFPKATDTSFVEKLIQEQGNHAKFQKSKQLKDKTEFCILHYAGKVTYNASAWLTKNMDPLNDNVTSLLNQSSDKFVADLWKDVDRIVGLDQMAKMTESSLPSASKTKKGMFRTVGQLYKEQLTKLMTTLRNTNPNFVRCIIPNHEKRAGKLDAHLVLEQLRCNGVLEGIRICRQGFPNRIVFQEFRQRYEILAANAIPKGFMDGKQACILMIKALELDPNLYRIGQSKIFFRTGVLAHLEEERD
T2 sequence (P02607 whole entry partner): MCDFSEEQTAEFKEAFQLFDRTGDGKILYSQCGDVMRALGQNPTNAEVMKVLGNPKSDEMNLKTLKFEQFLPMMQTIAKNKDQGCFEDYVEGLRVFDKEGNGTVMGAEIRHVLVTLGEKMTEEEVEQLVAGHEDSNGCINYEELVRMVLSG
T8 sequence (P08684 whole entry): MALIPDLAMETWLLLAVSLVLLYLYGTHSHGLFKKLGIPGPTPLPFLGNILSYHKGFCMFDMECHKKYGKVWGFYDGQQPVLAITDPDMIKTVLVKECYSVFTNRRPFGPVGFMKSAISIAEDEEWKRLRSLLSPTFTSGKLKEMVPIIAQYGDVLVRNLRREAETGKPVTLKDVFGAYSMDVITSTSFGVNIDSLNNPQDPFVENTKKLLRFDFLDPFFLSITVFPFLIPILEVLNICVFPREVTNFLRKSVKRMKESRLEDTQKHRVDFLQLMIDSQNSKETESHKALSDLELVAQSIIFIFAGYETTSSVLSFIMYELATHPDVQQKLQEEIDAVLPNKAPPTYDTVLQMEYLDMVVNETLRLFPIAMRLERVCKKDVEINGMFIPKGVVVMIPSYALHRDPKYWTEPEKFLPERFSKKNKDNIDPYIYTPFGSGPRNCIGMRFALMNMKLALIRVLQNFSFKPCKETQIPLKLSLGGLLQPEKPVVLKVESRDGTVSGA

Consider `Cn1cc(Oc2ncc(-c3ccc(=O)n(Cc4ccc5c(c4)CCC5)n3)cn2)cn1` [Compound 128], for which the IC50 in data set [1] (setting [5]) lay within 2500 to 20000 nM. Further, the values for the inhibition at 100 µM on cardiac myosin SII and against smooth muscle myosin S1 were -10% and -2%, respectively. Besides, the AUC(0-t) in data set [2] came out at 8320 ng·h/mL. The same molecule came in with a Cmax in data set [2] of 1090 ng/mL.

In the case of `O=C1CCc2ccc(Cn3nc(-c4cnc(Oc5cncc(F)c5)nc4)ccc3=O)cc21` [Compound 124], the half-inhibitory concentration (IC50) in [1] (setting [5]) is less than 2500 nM; in data set [3], greater than 40000 nM. Further, the inhibition at 100 µM on cardiac myosin SII was 4%; against smooth muscle myosin S1 it was -12%.

The molecule `O=c1ccc(-c2cnc(OCC(F)(F)F)nc2)nn1Cc1ccc2[nH]ncc2c1` [Comparative Example 1, reference compound] gave an AUC(0-t) in data set [2] of 2210 ng·h/mL. The concentration in data set [2] peaked (Cmax) at 267 ng/mL. Moreover, in [2], the half-life is 18.9 h. Besides, the IC50 in data set [3] was 2500 nM; on CYP1A2 it was greater than 30 µM; against CYP2C9, 4.44 µM; against CYP2C19, 1.85 µM; at CYP2D6 it was 8.81 µM; on CYP3A4 it was greater than 30 µM.

For the molecule `O=c1ccc(-c2cnc(C3CC3)nc2)nn1Cc1ccc2c(c1)CC2` [Compound 92], the values for the IC50 in data set [1] (setting [5]), in data set [1] (setting [6]) and in [3] were less than 2500 nM, 200 nM and greater than 40000 nM, respectively. In addition, on cardiac myosin SII, the inhibition at 100 µM turned out to be 17%.

For `O=C1CCc2ccc(Cn3nc(-c4cnc(C5CC5)nc4)ccc3=O)cc21` [Compound 157], the IC50 was less than 2500 nM in [1] (setting [5]) and greater than 40000 nM in data set [3]. Further, the inhibition at 100 µM at cardiac myosin SII was 10%; at smooth muscle myosin S1, -3%.

Take `O=C1CCc2ccc(Cn3nc(-c4cnc(OCC5CC5)nc4)ccc3=O)cc21` [Compound 129]: the IC50 in data set [1] (setting [5]) was less than 2500 nM; in [1] (setting [6]), 200 nM. In addition, the inhibition at 100 µM against cardiac myosin SII is 22%; against smooth muscle myosin S1, -2%. In data set [2], this molecule had a half-life of 41.9 h. Also, the Kp at 6 h in data set [4] was 146. Moreover, the Kp at 24 h in data set [4] is 178.

`O=c1ccc(-c2cnc(OCC(F)(F)F)nc2)nn1Cc1ccc2c(c1)C1CC1C2` (single isomer, unassigned) [Compound 160]: the IC50 in data set [1] (setting [5]) is less than 2500 nM. Further, at cardiac myosin SII, the inhibition at 100 µM is 8%. The inhibition at 100 µM against smooth muscle myosin S1 was 3%. In [2], this molecule registered an AUC(0-t) of 8170 ng·h/mL and a Cmax of 1380 ng/mL.

Turning to `O=c1ccc(-c2cnc(OCC(F)(F)F)nc2)nn1Cc1ccc2c(c1)CC1CC21` (single isomer, unassigned) [Compound 162], the IC50 was less than 2500 nM in [1] (setting [5]) and 800 nM in data set [1] (setting [6]). The figures for the inhibition at 100 µM on cardiac myosin SII and on smooth muscle myosin S1 were 13% and 16%, respectively. Moreover, in data set [2], the AUC(0-t) came to 6180 ng·h/mL. For the same molecule, the Cmax in [2] amounted to 688 ng/mL.

For `O=C1CCc2ccc(Cn3nc(-c4cnc(OCC5(F)CC5)nc4)ccc3=O)cc21` [Compound 135], the IC50 in [1] (setting [5]) is less than 2500 nM. The IC50 in data set [1] (setting [6]) worked out at 300 nM. The inhibition at 100 µM at smooth muscle myosin S1 came out at 8%. This molecule had a half-life in [2] of 66.8 h. In addition, in data set [4], the Kp at 6 h was found to be 133 and the Kp at 24 h was found to be 165.
